In article PMC9329436, “Optimization of the 4-anilinoquin(az)oline scaffold as epidermal growth factor receptor (EGFR) inhibitors for chordoma utilizing a toxicology profiling assay platform” (Scientific Reports, 2022):
Like-named read-outs stand apart in the source and are kept apart here.

Legend:
Assay type in all cases: biochemical
[1] = target: 320 wild-type protein kinases (Homo sapiens, UniProt Q13627); details: DYRK1A, singlicate
From the text: (§1) Table S4. Profiling of two compounds at two concentrations against 320 wild-type protein kinases; singlicate measurement; Residual activities (% of control).

[2] = target: 320 wild-type protein kinases (Homo sapiens, UniProt P14616); details: INSR-R, singlicate
Chain of 320 wild-type protein kinases (Homo sapiens, UniProt P14616) (P14616 27-1297): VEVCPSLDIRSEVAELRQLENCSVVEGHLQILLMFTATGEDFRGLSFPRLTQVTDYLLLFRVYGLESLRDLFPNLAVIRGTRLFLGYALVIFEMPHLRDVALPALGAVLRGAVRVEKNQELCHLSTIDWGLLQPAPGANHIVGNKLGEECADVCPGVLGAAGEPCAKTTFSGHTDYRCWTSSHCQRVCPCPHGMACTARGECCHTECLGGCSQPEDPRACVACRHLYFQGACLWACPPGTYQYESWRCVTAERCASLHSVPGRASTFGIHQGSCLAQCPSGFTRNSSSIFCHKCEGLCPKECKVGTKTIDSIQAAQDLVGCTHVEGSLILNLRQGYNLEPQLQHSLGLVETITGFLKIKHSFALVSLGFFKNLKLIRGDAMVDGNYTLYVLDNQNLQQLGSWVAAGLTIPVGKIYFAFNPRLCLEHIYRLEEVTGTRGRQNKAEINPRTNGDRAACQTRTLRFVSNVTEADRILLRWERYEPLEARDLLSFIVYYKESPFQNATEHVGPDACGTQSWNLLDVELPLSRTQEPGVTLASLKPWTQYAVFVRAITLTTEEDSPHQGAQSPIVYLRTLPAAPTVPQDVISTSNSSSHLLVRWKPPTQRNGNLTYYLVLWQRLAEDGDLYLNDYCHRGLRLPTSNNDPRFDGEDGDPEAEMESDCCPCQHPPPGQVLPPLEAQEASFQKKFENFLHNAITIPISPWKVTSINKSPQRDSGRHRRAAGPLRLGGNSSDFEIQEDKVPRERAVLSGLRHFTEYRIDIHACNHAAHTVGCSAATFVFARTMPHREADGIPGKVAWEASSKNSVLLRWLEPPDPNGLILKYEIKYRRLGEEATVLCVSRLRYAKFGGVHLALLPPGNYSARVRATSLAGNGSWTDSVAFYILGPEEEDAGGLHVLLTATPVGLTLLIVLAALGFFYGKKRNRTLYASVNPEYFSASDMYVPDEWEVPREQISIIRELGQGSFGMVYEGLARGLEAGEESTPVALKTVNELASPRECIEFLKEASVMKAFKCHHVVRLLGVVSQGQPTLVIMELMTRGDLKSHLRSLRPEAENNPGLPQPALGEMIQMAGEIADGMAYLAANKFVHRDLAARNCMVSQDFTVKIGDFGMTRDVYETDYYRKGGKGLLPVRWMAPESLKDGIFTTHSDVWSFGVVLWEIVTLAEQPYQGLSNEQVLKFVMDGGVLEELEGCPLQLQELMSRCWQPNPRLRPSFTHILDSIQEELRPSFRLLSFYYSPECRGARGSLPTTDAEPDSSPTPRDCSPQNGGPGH
From the text: as §1

[3] = target: T1, 320 wild-type protein kinases (Homo sapiens, UniProt Q99986); details: kinase VRK1, singlicate
T1 sequence (Q99986 1-396): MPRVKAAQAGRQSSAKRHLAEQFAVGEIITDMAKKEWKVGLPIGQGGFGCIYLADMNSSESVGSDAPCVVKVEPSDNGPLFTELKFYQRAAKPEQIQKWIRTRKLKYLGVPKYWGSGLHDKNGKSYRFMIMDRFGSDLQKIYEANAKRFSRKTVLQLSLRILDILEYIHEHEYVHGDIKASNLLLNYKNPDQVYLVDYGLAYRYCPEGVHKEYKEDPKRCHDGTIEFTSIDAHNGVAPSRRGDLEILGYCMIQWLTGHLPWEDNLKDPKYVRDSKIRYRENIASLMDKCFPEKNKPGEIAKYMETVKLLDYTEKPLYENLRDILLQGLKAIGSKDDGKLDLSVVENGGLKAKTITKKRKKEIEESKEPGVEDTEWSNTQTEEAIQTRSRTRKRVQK
From the text: as §1

[4] = target: T2, 320 wild-type protein kinases (Homo sapiens, UniProt Q96PY6); details: singlicate
T2 sequence (Q96PY6 1-1258): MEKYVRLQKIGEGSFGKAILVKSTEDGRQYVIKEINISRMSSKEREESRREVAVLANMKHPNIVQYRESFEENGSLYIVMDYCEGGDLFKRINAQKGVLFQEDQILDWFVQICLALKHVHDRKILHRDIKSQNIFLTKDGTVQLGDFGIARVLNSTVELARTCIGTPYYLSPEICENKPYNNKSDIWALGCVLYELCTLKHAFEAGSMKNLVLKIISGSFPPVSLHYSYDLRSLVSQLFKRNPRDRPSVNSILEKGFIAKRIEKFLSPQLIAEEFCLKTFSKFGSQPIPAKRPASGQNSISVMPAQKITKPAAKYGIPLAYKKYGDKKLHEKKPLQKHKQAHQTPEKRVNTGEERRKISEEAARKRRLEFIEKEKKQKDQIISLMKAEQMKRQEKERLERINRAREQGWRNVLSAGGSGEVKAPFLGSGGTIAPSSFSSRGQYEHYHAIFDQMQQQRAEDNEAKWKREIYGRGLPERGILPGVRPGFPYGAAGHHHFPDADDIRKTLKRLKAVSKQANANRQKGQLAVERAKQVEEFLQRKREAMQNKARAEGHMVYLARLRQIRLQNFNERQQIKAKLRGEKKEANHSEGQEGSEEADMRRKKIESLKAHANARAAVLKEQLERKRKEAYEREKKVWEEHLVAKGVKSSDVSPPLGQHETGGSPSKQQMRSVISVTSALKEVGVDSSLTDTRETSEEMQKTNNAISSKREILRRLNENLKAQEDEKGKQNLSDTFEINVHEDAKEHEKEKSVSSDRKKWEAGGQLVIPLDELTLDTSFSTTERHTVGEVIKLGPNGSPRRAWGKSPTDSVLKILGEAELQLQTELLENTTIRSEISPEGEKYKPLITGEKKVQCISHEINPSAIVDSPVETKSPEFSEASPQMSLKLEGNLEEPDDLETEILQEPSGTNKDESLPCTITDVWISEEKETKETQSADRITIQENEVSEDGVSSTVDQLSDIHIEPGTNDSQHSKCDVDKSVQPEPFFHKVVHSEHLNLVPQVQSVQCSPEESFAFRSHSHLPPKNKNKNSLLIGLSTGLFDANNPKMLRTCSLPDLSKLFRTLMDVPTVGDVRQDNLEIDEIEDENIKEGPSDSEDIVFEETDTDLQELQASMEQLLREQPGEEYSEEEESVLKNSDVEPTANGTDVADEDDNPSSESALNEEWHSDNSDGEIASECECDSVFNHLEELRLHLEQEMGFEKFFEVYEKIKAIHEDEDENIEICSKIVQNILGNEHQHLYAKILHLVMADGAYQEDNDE
From the text: as §1

[5] = target: T3, 320 wild-type protein kinases (Homo sapiens, UniProt P45985); details: singlicate
T3 sequence (P45985 1-399): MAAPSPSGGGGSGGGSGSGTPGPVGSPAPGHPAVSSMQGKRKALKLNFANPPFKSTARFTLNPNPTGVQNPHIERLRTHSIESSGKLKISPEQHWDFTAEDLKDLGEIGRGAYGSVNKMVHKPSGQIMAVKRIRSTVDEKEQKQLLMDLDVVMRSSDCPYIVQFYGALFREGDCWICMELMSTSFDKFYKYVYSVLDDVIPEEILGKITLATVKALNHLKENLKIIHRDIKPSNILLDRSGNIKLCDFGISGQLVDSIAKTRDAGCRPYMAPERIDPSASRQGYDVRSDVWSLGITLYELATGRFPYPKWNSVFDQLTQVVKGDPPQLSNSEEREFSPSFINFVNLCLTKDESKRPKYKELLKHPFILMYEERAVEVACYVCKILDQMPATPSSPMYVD
From the text: as §1

SMILES | Residual activity ([1]; 1.0E-06 M) | Residual activity ([1]; 1.0E-07 M) | Residual activity ([2]; 1.0E-06 M) | Residual activity ([2]; 1.0E-07 M) | Residual activity, VRK1 ([3]; assay conc. 1.0E-06 M) | Residual activity, VRK1 ([3]; assay conc. 1.0E-07 M) | Residual activity ([4]; NEK1, 1.0E-06 M) | Residual activity ([4]; NEK1, 1.0E-07 M) | Residual activity ([5]; MKK4, 1.0E-06 M) | Residual activity ([5]; MKK4, 1.0E-07 M)
C#Cc1cc(Nc2ncnc3cc(I)ccc23)ccc1Cl [Compound 41] | 75 % of control | 84 % of control | 93 % of control | 96 % of control | 98 % of control | 109 % of control | 82 % of control | 86 % of control | 93 % of control | 87 % of control
C#Cc1cc(Nc2ncnc3cc(OC)c(OC)cc23)ccc1Cl [Compound 45] | 91 % of control | 85 % of control | 99 % of control | 103 % of control | 93 % of control | 104 % of control | 89 % of control | 89 % of control | 96 % of control | 88 % of control
